Test results from PubChem BioAssay AID248 (DTP/NCI, 2004).
Where “and” joins values, the source holds several entries; their conditions need not be identical. Equal entries are not always repeated. Toxic doses and inconclusive results are not listed.

Test system: L1210 leukemia ip in BDF1 mice, survival T/C
Experiment: NCI In Vivo Anticancer Drug Screen. Data for tumor model L1210 Leukemia (intraperitoneal) in B6D2F1 (BDF1) mice
Settings: endpoint: mean survival time, higher = longer survival
How it was run: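 Tumor was transplanted into mice, which were then dosed with test compound or vehicle alone. Survival was recorded for each group, and the treated figure was expressed relative to the control figure.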

[1] = dose: 100.0 mg/kg/injection, schedule: Q04DX002 (ip), vehicle: saline with Tween-80
[2] = dose: 200.0 mg/kg/injection, schedule: Q04DX002 (ip), vehicle: saline with Tween-80
[3] = dose: 400.0 mg/kg/injection, schedule: Q04DX002 (ip), vehicle: saline with Tween-80
[4] = dose: 100.0 mg/kg/injection, schedule: Q01DX009 (ip), vehicle: saline with Tween-80
[5] = dose: 100.0 mg/kg/injection, schedule: Q04DX003 (ip), vehicle: saline with Tween-80
[6] = dose: 200.0 mg/kg/injection, schedule: Q01DX009 (ip), vehicle: saline with Tween-80
[7] = dose: 200.0 mg/kg/injection, schedule: Q04DX003 (ip), vehicle: saline with Tween-80
[8] = dose: 400.0 mg/kg/injection, schedule: Q01DX009 (ip), vehicle: saline with Tween-80
[9] = dose: 400.0 mg/kg/injection, schedule: Q04DX003 (ip), vehicle: saline with Tween-80
[10] = dose: 25.0 mg/kg/injection, schedule: Q01DX009 (ip), vehicle: saline with Tween-80
[11] = dose: 50.0 mg/kg/injection, schedule: Q01DX009 (ip), vehicle: saline with Tween-80

**Q.** Which results are given for `CC(CN1CCCC1)C(O)(Cc1ccccc1)c1ccccc1` (stereo unspecified)?
**A.** T/C (dose: 25.0 mg/kg/injection, schedule: Q01DX009 (ip), vehicle: saline): 95 % of control; T/C (dose: 50.0 mg/kg/injection, schedule: Q01DX009 (ip), vehicle: saline): 95 % of control; T/C (dose: 100.0 mg/kg/injection, schedule: Q04DX003 (ip), vehicle: saline): 92 % of control

**Q.** Which T/C [1] does the source give for `COC(=O)c1ccccc1N(C)C(=O)c1cc(OC)c(OC)c(OC)c1` here?
**A.** 108 % of control

**Q.** What about the T/C [2] of the same compound?
**A.** 94 % of control

**Q.** What about the T/C [3] of the same compound?
**A.** 91 % of control

**Q.** For `COc1cc(CC2c3ccccc3CC[N+]2(C)C)c(Oc2cc(CC3c4ccccc4CC[N+]3(C)C)ccc2OC)cc1OC` (stereo unspecified), which T/C (dose: 0.78 mg/kg/injection, schedule: Q01DX009 (ip), vehicle: Klucel (hydroxypropylcellulose) (HPC)) is on record?
**A.** 103 % of control

**Q.** And the T/C (dose: 1.56 mg/kg/injection, schedule: Q01DX009 (ip), vehicle: Klucel (hydroxypropylcellulose) (HPC))?
**A.** 97 % of control

**Q.** And the T/C (dose: 3.13 mg/kg/injection, schedule: Q01DX009 (ip), vehicle: Klucel (hydroxypropylcellulose) (HPC))?
**A.** 100 % of control

**Q.** `COc1ccc(/C=C2\N=C(c3cccc([N+](=O)[O-])c3)OC2=O)cc1OC` was tested. Which T/C (dose: 100.0 mg/kg/injection, schedule: Q04DX002 (ip), vehicle: Klucel (hydroxypropylcellulose) (HPC)) did it give?
**A.** 89 % of control

**Q.** And the T/C (dose: 200.0 mg/kg/injection, schedule: Q04DX002 (ip), vehicle: Klucel (hydroxypropylcellulose) (HPC))?
**A.** 110 % of control

**Q.** What about the T/C (dose: 400.0 mg/kg/injection, schedule: Q04DX002 (ip), vehicle: Klucel (hydroxypropylcellulose) (HPC)) of the same compound?
**A.** 100 % of control

**Q.** Which results are given for `C[N+](C)(C)c1ncnc2nc[nH]c12`?
**A.** T/C (dose: 22.5 mg/kg/injection, schedule: Q01DX Z (ip), vehicle: saline): 112 % of control; T/C (dose: 31.0 mg/kg/injection, schedule: Q01DX005 (ip), vehicle: saline): 112 % of control; T/C (dose: 31.0 mg/kg/injection, schedule: Q01DX009 (ip), vehicle: saline): 120 % of control; T/C (dose: 45.0 mg/kg/injection, schedule: Q01DX Z (ip), vehicle: saline): 110 % of control; T/C (dose: 53.0 mg/kg/injection, schedule: Q01DX Z (ip), vehicle: carboxymethylcellulose (CMC)): 110 % of control; T/C (dose: 62.0 mg/kg/injection, schedule: Q01DX005 (ip), vehicle: saline): 110 % of control; T/C (dose: 62.0 mg/kg/injection, schedule: Q01DX009 (oral), vehicle: saline): 109 % of control; T/C (dose: 62.0 mg/kg/injection, schedule: Q01DX009 (sc), vehicle: saline): 109 % of control; T/C (dose: 80.0 mg/kg/injection, schedule: Q01DX Z (ip), vehicle: carboxymethylcellulose (CMC)): 118 % of control; T/C (dose: 100.0 mg/kg/injection, schedule: Q## X008 (ip), vehicle: saline): 110 % of control; T/C (dose: 100.0 mg/kg/injection, schedule: Q## X024 (ip), vehicle: saline): 115 % of control; T/C (dose: 120.0 mg/kg/injection, schedule: Q01DX Z (ip), vehicle: carboxymethylcellulose (CMC)): 118 % of control; T/C (dose: 125.0 mg/kg/injection, schedule: Q01DX001 (ip), vehicle: saline): 96 % of control; T/C (dose: 125.0 mg/kg/injection, schedule: Q01DX001 (oral), vehicle: saline): 116 % of control; T/C (dose: 125.0 mg/kg/injection, schedule: Q01DX001 (sc), vehicle: saline): 106 % of control; T/C (dose: 125.0 mg/kg/injection, schedule: Q01DX005 (ip), vehicle: saline): 124 % of control; T/C (dose: 125.0 mg/kg/injection, schedule: Q01DX009 (sc), vehicle: saline): 118 % of control; T/C (dose: 125.0 mg/kg/injection, schedule: Q## X003 (ip), vehicle: saline): 108 % of control; T/C (dose: 180.0 mg/kg/injection, schedule: Q01DX Z (ip), vehicle: carboxymethylcellulose (CMC)): 162 % of control; T/C (dose: 200.0 mg/kg/injection, schedule: Q## X008 (ip), vehicle: saline): 109 % of control; T/C (dose: 250.0 mg/kg/injection, schedule: Q01DX001 (ip), vehicle: saline): 107 % of control; T/C (dose: 250.0 mg/kg/injection, schedule: Q01DX001 (oral), vehicle: saline): 110 % of control; T/C (dose: 250.0 mg/kg/injection, schedule: Q01DX001 (sc), vehicle: saline): 109 % of control; T/C (dose: 250.0 mg/kg/injection, schedule: Q01DX009 (sc), vehicle: saline): 123 % of control; T/C (dose: 250.0 mg/kg/injection, schedule: Q## X003 (ip), vehicle: saline): 119 % of control; T/C (dose: 270.0 mg/kg/injection, schedule: Q01DX015 (ip), vehicle: saline): 152 % of control; T/C (dose: 400.0 mg/kg/injection, schedule: Q## X008 (ip), vehicle: saline): 120 % of control; T/C (dose: 500.0 mg/kg/injection, schedule: Q01DX001 (oral), vehicle: saline): 112 % of control; T/C (dose: 800.0 mg/kg/injection, schedule: Q## X024 (ip), vehicle: saline): 122 % of control; T/C (dose: 1000.0 mg/kg/injection, schedule: Q01DX001 (oral), vehicle: saline): 124 % of control

**Q.** Which T/C [1] does the source give for `CCOC(=O)c1ccc(N(N=O)C(C)C)cc1` here?
**A.** 101 % of control

**Q.** What about the T/C [2] of the same compound?
**A.** 86 % of control

**Q.** What about the T/C [3] of the same compound?
**A.** 97 % of control

**Q.** `CC1(C)CCC2=C(O1)c1ccccc1C(=O)C2=O` was tested. Which T/C (dose: 25.0 mg/kg/injection, schedule: Q01DX001 (ip), vehicle: Klucel (hydroxypropylcellulose) (HPC)) did it give?
**A.** 102 % of control

**Q.** And the T/C (dose: 50.0 mg/kg/injection, schedule: Q01DX001 (ip), vehicle: Klucel (hydroxypropylcellulose) (HPC))?
**A.** 98 % of control

**Q.** And the T/C (dose: 100.0 mg/kg/injection, schedule: Q01DX001 (ip), vehicle: Klucel (hydroxypropylcellulose) (HPC))?
**A.** 94 % of control and 102 % of control

**Q.** With `OC1(CCC2OCCO2)c2ccccc2-c2ccccc21` as the compound, how does the T/C (dose: 100.0 mg/kg/injection, schedule: Q01DX001 (ip), vehicle: saline with Tween-80) read?
**A.** 95 % of control

**Q.** And the T/C [4]?
**A.** 93 % of control

**Q.** And the T/C [1]?
**A.** 95 % of control and 100 % of control

**Q.** And the T/C [5]?
**A.** 96 % of control

**Q.** What about the T/C (dose: 200.0 mg/kg/injection, schedule: Q01DX001 (ip), vehicle: saline with Tween-80) of the same compound?
**A.** 90 % of control

**Q.** And the T/C [6]?
**A.** 96 % of control and 100 % of control

**Q.** And the T/C [2]?
**A.** 93 % of control and 102 % of control

**Q.** And the T/C [7]?
**A.** 96 % of control

**Q.** What about the T/C (dose: 400.0 mg/kg/injection, schedule: Q01DX001 (ip), vehicle: saline with Tween-80) of the same compound?
**A.** 93 % of control

**Q.** What about the T/C [8] of the same compound?
**A.** 96 % of control and 120 % of control

**Q.** And the T/C [3]?
**A.** 95 % of control

**Q.** What about the T/C [9] of the same compound?
**A.** 95 % of control

**Q.** For `C[CH2][Sn]([CH2]C)([CH2]C)[S]Cc1ccccc1`, which T/C (dose: 1.56 mg/kg/injection, schedule: Q01DX009 (ip), vehicle: saline with Tween-80) is on record?
**A.** 97 % of control

**Q.** And the T/C (dose: 3.13 mg/kg/injection, schedule: Q01DX009 (ip), vehicle: saline with Tween-80)?
**A.** 95 % of control

**Q.** And the T/C (dose: 6.25 mg/kg/injection, schedule: Q01DX009 (ip), vehicle: saline with Tween-80)?
**A.** 87 % of control

**Q.** `CC(=O)N(C)c1ccc(NC(=O)Nc2cccc(F)c2)cc1` was tested. Which T/C (dose: 12.5 mg/kg/injection, schedule: Q01DX009 (ip), vehicle: saline with Tween-80) did it give?
**A.** 104 % of control

**Q.** What about the T/C [10] of the same compound?
**A.** 105 % of control

**Q.** What about the T/C [11] of the same compound?
**A.** 96 % of control

**Q.** How did the T/C (dose: 100.0 mg/kg/injection, schedule: Q04DX003 (ip), vehicle: saline sonified) turn out when `Nc1n[nH]c([N+](=O)[O-])n1` was run?
**A.** 100 % of control

**Q.** What about the T/C (dose: 200.0 mg/kg/injection, schedule: Q04DX003 (ip), vehicle: saline sonified) of the same compound?
**A.** 103 % of control

**Q.** What about the T/C (dose: 400.0 mg/kg/injection, schedule: Q04DX003 (ip), vehicle: saline sonified) of the same compound?
**A.** 109 % of control

**Q.** With `CC(=O)Nc1ccc(S(=O)(=O)Nc2ccc([N+](=O)[O-])cc2)cc1` as the compound, how does the T/C [10] read?
**A.** 96 % of control

**Q.** What about the T/C [11] of the same compound?
**A.** 100 % of control

**Q.** What about the T/C [4] of the same compound?
**A.** 98 % of control and 87 % of control

**Q.** What about the T/C [5] of the same compound?
**A.** 109 % of control

**Q.** What about the T/C [6] of the same compound?
**A.** 95 % of control and 94 % of control

**Q.** What about the T/C [7] of the same compound?
**A.** 109 % of control

**Q.** And the T/C [8]?
**A.** 97 % of control and 94 % of control

**Q.** What about the T/C [9] of the same compound?
**A.** 109 % of control

**Q.** Which T/C (dose: 100.0 mg/kg/injection, schedule: Q04DX002 (ip), vehicle: other) does the source give for `Cln1nnc2ccccc21` here?
**A.** 91 % of control

**Q.** What about the T/C (dose: 200.0 mg/kg/injection, schedule: Q04DX002 (ip), vehicle: other) of the same compound?
**A.** 106 % of control

**Q.** How did the T/C (dose: 12.5 mg/kg/injection, schedule: Q04DX003 (ip), vehicle: saline with Tween-80) turn out when `COc1ccc2c(c1)CC/C(=C\c1ccc(OCCN3CCCC3)cc1)C2=O` was run?
**A.** 105 % of control

**Q.** And the T/C (dose: 25.0 mg/kg/injection, schedule: Q04DX003 (ip), vehicle: saline with Tween-80)?
**A.** 107 % of control

**Q.** What about the T/C (dose: 50.0 mg/kg/injection, schedule: Q04DX003 (ip), vehicle: saline with Tween-80) of the same compound?
**A.** 100 % of control

**Q.** And the T/C [5]?
**A.** 111 % of control

**Q.** What does the source list for `Cc1ccc([N+](=O)[O-])cc1NC(=O)Nc1cccc(O)c1`?
**A.** T/C (dose: 100.0 mg/kg/injection, schedule: Q01DX009 (ip), vehicle: Klucel (hydroxypropylcellulose) (HPC)): 95 % of control; T/C (dose: 200.0 mg/kg/injection, schedule: Q01DX009 (ip), vehicle: Klucel (hydroxypropylcellulose) (HPC)): 86 % of control; T/C (dose: 400.0 mg/kg/injection, schedule: Q01DX009 (ip), vehicle: Klucel (hydroxypropylcellulose) (HPC)): 93 % of control
